Measurements as given in patent US6534519B1, “Phenanthridine-N-oxides with PDE-IV inhibiting activity” (Altana Pharma AG, priority 1999, dated 2003).

Key:
[1] = test system: PDE4; assay: Inhibition of PDE4 activity (method of Bauer and Schwabe, microtiter plates); assay type: biochemical; conditions: inhibitory concentration as −log IC50 (mol/1)
From the text: The activity test can be carried out, for example according to the method of Bauer and Schwabe. For this, the method is adapted to microtiter plates (Naunyn-Schmiedeberg's Arch. Pharmacol. 1980, 311, 193-198). The PDE reaction takes place in the first step here. In a second step, the resulting 5′-nucleotide is cleaved by a 5′-nucloetidase of the snake venom of Crotalus atrox to the uncharged nucleoside. In the third step, the nucleoside is separated from the remaining charged substrate on ion-exchange columns. The columns are eluted directly into minivials, into which 2 ml of scintillator fluid are additionally added for counting, using 2 ml of 30 mM ammonium formate (pH 6.0).
The inhibitory values determined for the compounds according to the invention [inhibitory concentration as −log IC50 (mol/1)] follow from the following Table A, in which the numbers of the compounds correspond to the numbers of the examples.

CCn1nnc(-c2ccc(C3=[N+]([O-])C4CCCCC4c4cc(OC)c(OC)cc43)cc2)n1 (single isomer, unassigned; (-)) [Compound 1, (−)-cis-6-[4-(2-Ethyl-2H-tetrazol-5-yl)phenyl]-8,9-dimethoxy-1,2,3,4,4a,10b-hexahydrophen-anthridine-N-5-oxide]
−log IC50 [1]: 6.29
melting point: 143.5 to 146 °C
